For 7 compounds, GI50 and TGI results are on record in PubChem BioAssay (NCI).

Values joined by “and” are separate entries in the source; they are usually repeats but may differ in a detail not shown here. Equal entries are not always repeated.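 48-hour exposure; five concentrations; linearly interpolated endpoints. Here, GI50 denotes the concentration required for 50% inhibition of growth. TGI: concentration producing complete growth inhibition.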

Some test systems named below: CCRF-CEM leukemia; KM12 colon; MDA-MB-231 breast; MDA-MB-435; OVCAR-3 ovarian; OVCAR-8 ovarian; RXF 393 renal; SF-268 CNS; SN12C renal; UACC-62 melanoma.
Holding throughout (assay): NCI-60 cell line screen, 48 h

For `Cc1csc(/C=N/NC(=O)c2nnn(-c3ccnc4c(C(F)(F)F)cccc34)c2C)c1`, the GI50 in the assay with CCRF-CEM leukemia was 56.8 µM; in the assay with KM12 colon, > 100 µM; in the assay with MDA-MB-231 breast, 31.7 µM; in the assay with MDA-MB-435 it was 85.3 µM; in the assay on OVCAR-3 ovarian, 90.3 µM; in the assay on OVCAR-8 ovarian, 74.1 µM. Moreover, the GI50 with RXF 393 renal was 1.41 µM; in the assay with SF-268 CNS, > 100 µM; with SN12C renal, 71.4 µM; in the assay with UACC-62 melanoma, 74.7 µM. The TGI in the assay with CCRF-CEM leukemia, with KM12 colon, in the assay with MDA-MB-231 breast, in the assay with MDA-MB-435, with OVCAR-3 ovarian and with OVCAR-8 ovarian was > 100 µM throughout. The TGI with RXF 393 renal is 62.7 µM; in the assay with SF-268 CNS, > 100 µM; with SN12C renal it was > 100 µM; in the assay with UACC-62 melanoma, > 100 µM.
In the case of `COC1C(O)C(C)OC(OC2C(Oc3cccc4c(O)c5c(=O)oc6ccc(C)c7c(=O)oc(c34)c5c67)OC(C)C3O[C@H](c4ccccc4)OC32)C1O` (stereo partly specified), the GI50 with CCRF-CEM leukemia is 0.0752 µM and 0.0731 µM; in the assay on KM12 colon it was 0.331 µM and 0.312 µM; in the assay with MDA-MB-231 breast, 0.455 µM; with MDA-MB-435, 0.309 µM and 0.436 µM; with SN12C renal it was 0.173 µM; in the assay on UACC-62 melanoma, 0.304 µM. In addition, the TGI with CCRF-CEM leukemia was found to be 8.82 µM; in the assay on KM12 colon it was 8.49 µM; in the assay on MDA-MB-231 breast, 7.78 µM; with MDA-MB-435, 7.22 µM; in the assay on OVCAR-3 ovarian it was 5.31 µM; in the assay on OVCAR-8 ovarian, 8.23 µM. Moreover, the TGI with RXF 393 renal is 5.91 µM; in the assay with SF-268 CNS, 5.83 µM; with SN12C renal it was 6.17 µM; with UACC-62 melanoma it was 1.9 µM.
Take `O=C(/C=C/c1ccccc1)c1c[nH]c2ccccc2c1=O`: the GI50 in the assay on CCRF-CEM leukemia was 2.88 µM; in the assay with KM12 colon, 3.37 µM; with MDA-MB-231 breast it was 4.22 µM; with MDA-MB-435 it was 3.17 µM; in the assay on OVCAR-3 ovarian, 2.03 µM; in the assay with OVCAR-8 ovarian, 2.23 µM. Besides, the GI50 is 3.05 µM in the assay with RXF 393 renal, 2.81 µM in the assay with SF-268 CNS, 3.54 µM in the assay with SN12C renal and 5.09 µM in the assay on UACC-62 melanoma. Also, the TGI with CCRF-CEM leukemia was 9.97 µM; in the assay on KM12 colon it was 11 µM; in the assay on MDA-MB-231 breast it was 18.7 µM; in the assay on MDA-MB-435, 13.8 µM; in the assay with OVCAR-3 ovarian it was 4.37 µM; in the assay with OVCAR-8 ovarian, 6.82 µM. Also, the TGI came to 11.5 µM with RXF 393 renal, 10.3 µM in the assay with SF-268 CNS, 15.5 µM in the assay on SN12C renal and 18.2 µM in the assay on UACC-62 melanoma.
In the case of `NC1=NC(c2ccc(Cl)cc2)N(c2ccc(S(=O)(=O)Nc3ncccn3)cc2)C(N)=N1` (stereo unspecified), the TGI with CCRF-CEM leukemia, with KM12 colon, in the assay on MDA-MB-231 breast, in the assay on MDA-MB-435, in the assay with OVCAR-3 ovarian and in the assay on OVCAR-8 ovarian was > 100 µM in each case. Further, the TGI in the assay on RXF 393 renal, with SF-268 CNS, with SN12C renal and in the assay with UACC-62 melanoma was > 100 µM in each case.
As to `CCNC(C)(C)C(SS)c1ccc(Br)cc1` (stereo unspecified), the TGI in the assay on CCRF-CEM leukemia is 60 µM; with KM12 colon, > 100 µM; in the assay on MDA-MB-231 breast, > 100 µM; in the assay on MDA-MB-435, > 100 µM; in the assay on OVCAR-3 ovarian, > 100 µM; in the assay with OVCAR-8 ovarian, > 100 µM. The TGI in the assay on RXF 393 renal, in the assay on SF-268 CNS, in the assay with SN12C renal and with UACC-62 melanoma was > 100 µM each time.
On to `CN(Cc1cnc(N)nc1N)c1ccc(C(=O)O)cc1`, for which the GI50 in the assay with CCRF-CEM leukemia, in the assay on KM12 colon, with MDA-MB-231 breast, in the assay on MDA-MB-435, with OVCAR-3 ovarian and in the assay on OVCAR-8 ovarian was > 100 µM in each case. For the same compound, the GI50 with RXF 393 renal, with SF-268 CNS, in the assay on SN12C renal and with UACC-62 melanoma was > 100 µM each time. Besides, the TGI with CCRF-CEM leukemia, in the assay with KM12 colon, in the assay with MDA-MB-231 breast, in the assay on MDA-MB-435, in the assay on OVCAR-3 ovarian and in the assay on OVCAR-8 ovarian was > 100 µM throughout. Moreover, the TGI in the assay with RXF 393 renal, in the assay on SF-268 CNS, in the assay on SN12C renal and in the assay on UACC-62 melanoma was > 100 µM throughout.
As to `Cn1cc(C2=C(c3c4n(c5ccccc35)CCCC4)C(=O)NC2=O)c2ccccc21`, the GI50 was > 15.3 µM in the assay with CCRF-CEM leukemia; 9.71 µM with KM12 colon; > 20.2 µM with MDA-MB-231 breast; 1.08 µM with MDA-MB-435; 6.43 µM in the assay with OVCAR-3 ovarian; > 18.4 µM in the assay on OVCAR-8 ovarian. Besides, the GI50 was 5.86 µM in the assay on RXF 393 renal, 12 µM with SF-268 CNS, 15.1 µM in the assay on SN12C renal and 6.32 µM in the assay on UACC-62 melanoma. The TGI in the assay on CCRF-CEM leukemia was > 25 µM; in the assay with KM12 colon it was > 25 µM; in the assay with MDA-MB-231 breast it was > 25 µM; with MDA-MB-435 it was > 15.2 µM; in the assay on OVCAR-3 ovarian, > 21.6 µM; with OVCAR-8 ovarian it was > 25 µM. Further, the TGI is > 16.1 µM in the assay on RXF 393 renal, > 25 µM with SF-268 CNS, > 25 µM with SN12C renal and > 25 µM in the assay with UACC-62 melanoma.
